Legend:
Rattus norvegicus [1] = species on record: Rattus norvegicus; experiment: Intrinsic activity in rat isolated aorta; assay type: functional
Rattus norvegicus [2] = species on record: Rattus norvegicus; experiment: Negative logarithm of the molar concentration required to relax rat aorta precontracted with 30 mM KCl by 50% of intrinsic activity; assay type: functional; details: for EC50: Rattus norvegicus, Aorta

SMILES	IA (Rattus norvegicus [1])	EC50 (Rattus norvegicus [2])	Log EC50 (Rattus norvegicus [2])
C/N=C(/S)C1=CC2(CCCC2)Oc2ccc([N+](=O)[O-])cc21	77.7%	0.0251 nM	
C/N=C(/S)C1=CC(C)(C)Oc2ccc([N+](=O)[O-])cc21	63.5%		
CCC1C=C(/C(S)=N\C)c2cc([N+](=O)[O-])ccc2O1 (stereo unspecified)		> 31600 nM	
C/N=C(/S)C1=CC2(CCC2)Oc2ccc([N+](=O)[O-])cc21	68.2%	0.0209 nM	
C/N=C(/S)C1=CC2(CCCCC2)Oc2ccc([N+](=O)[O-])cc21	77.6%	0.112 nM	
C/N=C(/S)C1=CC(C)(C)Oc2ccc(C#N)cc21	89%		
CCCC1(C)C=C(/C(S)=N\C)c2cc([N+](=O)[O-])ccc2O1 (stereo unspecified)	62.6%	0.017 nM	
CCCCC1(C)C=C(/C(S)=N\C)c2cc([N+](=O)[O-])ccc2O1 (stereo unspecified)	66.5%	40.7 nM	
CCC1(C)C=C(/C(S)=N\C)c2cc([N+](=O)[O-])ccc2O1 (stereo unspecified)	75.1%	0.182 nM	
C/N=C(/S)C1=CC2(Oc3ccc([N+](=O)[O-])cc31)C1CC3CC(C1)CC2C3 (stereo unspecified)	87.9%	407 nM	
C/N=C(/S)C1=CC2(CCCCCC2)Oc2ccc([N+](=O)[O-])cc21	61.5%	47.9 nM	
CCC1(CC)C=C(/C(S)=N\C)c2cc([N+](=O)[O-])ccc2O1	70.3%	0.372 nM	
C/N=C(/S)C1=CC(C(C)(C)C)Oc2ccc([N+](=O)[O-])cc21 (stereo unspecified)	71.7%	0.398 nM	
C/N=C(/S)C1=C(O)C(C)(C)Oc2ccc([N+](=O)[O-])cc21	93.9%	1120 nM	
C/N=C(/S)C1c2cc([N+](=O)[O-])ccc2OC(C)(C)C1O (stereo in doubt; cis)	57.9%		-6.96
C/N=C(/S)C1c2cc([N+](=O)[O-])ccc2OC(C)(C)C1O (stereo in doubt; trans)	73.2%		-6.58
CC1(C)Oc2ccc(C#N)cc2[C@@H](N2CCCC2=O)[C@@H]1O [CROMAKALIM]	74.7%		
CC(N/C(=N\C#N)Nc1ccncc1)C(C)(C)C (stereo unspecified) [PINACIDIL ANHYDROUS]	91.9%		
